Laboratory results: publication PMC2978156 (Neuron, 2010)
Blank lines part the entries; values can stand above or below the molecule they belong to.

Legend:
Format in all cases: biochemical
[1] = molecular target: T1, VGLUT2 (Rattus norvegicus, UniProt Q9JI12); experiment: Val-evoked [3H]L-glutamate uptake by proteoliposomes, […] min; conditions: 10 mM Cl-, 100 uM L-glutamate, pH 7.0, 27 C
T1 sequence (Q9JI12 1-582): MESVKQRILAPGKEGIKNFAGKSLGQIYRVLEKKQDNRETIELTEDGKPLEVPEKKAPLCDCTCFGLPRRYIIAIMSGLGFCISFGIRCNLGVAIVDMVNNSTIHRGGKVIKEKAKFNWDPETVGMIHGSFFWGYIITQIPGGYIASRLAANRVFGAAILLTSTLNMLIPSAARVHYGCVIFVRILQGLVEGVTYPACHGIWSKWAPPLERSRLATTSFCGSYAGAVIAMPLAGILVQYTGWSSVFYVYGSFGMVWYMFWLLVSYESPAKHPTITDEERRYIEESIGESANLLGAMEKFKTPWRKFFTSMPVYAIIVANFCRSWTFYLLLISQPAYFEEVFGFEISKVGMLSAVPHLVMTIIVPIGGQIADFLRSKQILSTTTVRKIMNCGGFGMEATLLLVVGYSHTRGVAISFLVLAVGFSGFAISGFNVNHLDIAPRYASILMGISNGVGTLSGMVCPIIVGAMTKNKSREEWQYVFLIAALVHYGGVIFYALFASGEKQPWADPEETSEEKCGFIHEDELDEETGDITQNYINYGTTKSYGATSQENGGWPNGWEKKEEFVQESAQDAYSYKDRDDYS

[2] = molecular target: T1, VGLUT2; experiment: as above; conditions: 10 mM Cl-, pH 7.0, 27 C
[3] = molecular target: T2, VNUT (Homo sapiens, UniProt Q9BYT1); experiment: Val-evoked […]ATP uptake by proteoliposomes; conditions: 10 mM Cl-, 0.1 mM ATP, pH 7.0, 27 C; prevented by high Cl-; reversible
T2 sequence (Q9BYT1 1-436): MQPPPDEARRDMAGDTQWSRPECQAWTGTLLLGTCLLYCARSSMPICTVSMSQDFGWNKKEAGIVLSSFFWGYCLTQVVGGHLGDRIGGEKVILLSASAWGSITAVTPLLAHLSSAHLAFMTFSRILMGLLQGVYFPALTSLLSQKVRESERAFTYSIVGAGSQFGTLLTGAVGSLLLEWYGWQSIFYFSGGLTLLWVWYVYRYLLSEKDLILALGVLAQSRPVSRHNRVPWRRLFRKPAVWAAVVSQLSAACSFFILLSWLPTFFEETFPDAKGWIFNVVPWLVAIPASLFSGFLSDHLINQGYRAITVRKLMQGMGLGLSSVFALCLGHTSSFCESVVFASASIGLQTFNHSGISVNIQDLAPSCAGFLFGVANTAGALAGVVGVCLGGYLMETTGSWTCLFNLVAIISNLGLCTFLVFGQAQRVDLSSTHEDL

[4] = molecular target: T1, VGLUT2; experiment: Val-evoked [3H]L-glutamate uptake by proteoliposomes, […] min
[5] = molecular target: VMAT2 (Rattus norvegicus, UniProt Q01827); experiment: pH-driven [3H]serotonin uptake by proteoliposomes; conditions: 10 mM Cl-, 10 uM serotonin, pH 7.0 outside; inactive
[6] = molecular target: T3, VGAT (Rattus norvegicus, UniProt O35458); experiment: GABA uptake by proteoliposomes
T3 sequence (O35458 1-525): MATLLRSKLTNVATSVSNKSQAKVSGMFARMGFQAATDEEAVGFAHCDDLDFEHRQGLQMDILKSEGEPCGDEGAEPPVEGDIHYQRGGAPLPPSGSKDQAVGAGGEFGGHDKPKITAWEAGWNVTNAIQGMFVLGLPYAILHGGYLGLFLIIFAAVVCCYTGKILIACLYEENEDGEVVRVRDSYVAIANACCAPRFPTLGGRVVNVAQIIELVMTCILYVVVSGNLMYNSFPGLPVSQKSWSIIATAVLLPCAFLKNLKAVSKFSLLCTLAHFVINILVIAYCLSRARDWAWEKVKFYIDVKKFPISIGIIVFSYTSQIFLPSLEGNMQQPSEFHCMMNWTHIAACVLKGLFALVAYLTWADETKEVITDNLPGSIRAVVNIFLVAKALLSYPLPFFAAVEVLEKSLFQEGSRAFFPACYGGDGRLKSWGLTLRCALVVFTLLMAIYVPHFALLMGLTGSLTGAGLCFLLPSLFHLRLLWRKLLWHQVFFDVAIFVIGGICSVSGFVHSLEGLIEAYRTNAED

VMAT2, sequence (Q01827 whole entry): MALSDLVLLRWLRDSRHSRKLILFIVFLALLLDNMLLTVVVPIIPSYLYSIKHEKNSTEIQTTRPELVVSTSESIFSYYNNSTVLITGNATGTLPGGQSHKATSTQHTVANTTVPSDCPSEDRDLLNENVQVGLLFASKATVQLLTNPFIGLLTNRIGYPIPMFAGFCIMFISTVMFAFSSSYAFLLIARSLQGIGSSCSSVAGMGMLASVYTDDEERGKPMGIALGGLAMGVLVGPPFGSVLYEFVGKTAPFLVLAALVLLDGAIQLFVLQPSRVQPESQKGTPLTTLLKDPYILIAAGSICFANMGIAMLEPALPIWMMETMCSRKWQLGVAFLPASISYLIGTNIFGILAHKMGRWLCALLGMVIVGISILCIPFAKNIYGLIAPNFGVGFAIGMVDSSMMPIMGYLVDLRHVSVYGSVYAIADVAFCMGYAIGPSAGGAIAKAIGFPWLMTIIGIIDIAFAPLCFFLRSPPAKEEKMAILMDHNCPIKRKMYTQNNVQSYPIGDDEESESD

Structure (SMILES): C[C@@H](O)CC(=O)O [3-hydroxybutyrate]
dose-dependent inhibition [1]: ketone bodies (acetoacetate and 3-hydroxybutyrate) inhibited glutamate transport

Structure (SMILES): Cc1cc(-c2ccc(/N=N/c3ccc4c(S(=O)(=O)O)cc(S(=O)(=O)O)c(N)c4c3O)c(C)c2)ccc1/N=N/c1ccc2c(S(=O)(=O)O)cc(S(=O)(=O)O)c(N)c2c1O [Evans blue]
Val-evoked [3H]L-glutamate uptake by proteoliposomes, 1 min [2]: sensitivity to Evans blue and diisothiocyanostilbene disulfonic acid (DIDS)

IC50 [4]: 200 µM
IC50 [6]: > 5000 µM
Structure (SMILES): CC(=O)CC(=O)O [acetoacetate]
dose-dependent inhibition [3]: uptake of ATP by VNUT was similarly inhibited by acetoacetate
pH-driven [3H]serotonin uptake by proteoliposomes [5]: partially purified VMAT2 was found to be entirely independent of Cl^− and acetoacetate

Structure (SMILES): CC(=O)C(=O)O [pyruvate]
dose-dependent inhibition [1]: pyruvate, an intermediate in the glycolytic pathway also inhibited glutamate transport
